Source: ChEMBL document CHEMBL2216752, “Carnitine palmitoyltransferase (CPT) modulators: a medicinal chemistry perspective on 35 years of research” (J Med Chem, 2011)

Assays:
[1] = Inhibition of human FAO
[2] = target: T1, Carnitine O-palmitoyltransferase 1, muscle isoform (Homo sapiens, UniProt Q92523); assay: Inhibition of human CPT1B
T1 sequence (Q92523 whole entry): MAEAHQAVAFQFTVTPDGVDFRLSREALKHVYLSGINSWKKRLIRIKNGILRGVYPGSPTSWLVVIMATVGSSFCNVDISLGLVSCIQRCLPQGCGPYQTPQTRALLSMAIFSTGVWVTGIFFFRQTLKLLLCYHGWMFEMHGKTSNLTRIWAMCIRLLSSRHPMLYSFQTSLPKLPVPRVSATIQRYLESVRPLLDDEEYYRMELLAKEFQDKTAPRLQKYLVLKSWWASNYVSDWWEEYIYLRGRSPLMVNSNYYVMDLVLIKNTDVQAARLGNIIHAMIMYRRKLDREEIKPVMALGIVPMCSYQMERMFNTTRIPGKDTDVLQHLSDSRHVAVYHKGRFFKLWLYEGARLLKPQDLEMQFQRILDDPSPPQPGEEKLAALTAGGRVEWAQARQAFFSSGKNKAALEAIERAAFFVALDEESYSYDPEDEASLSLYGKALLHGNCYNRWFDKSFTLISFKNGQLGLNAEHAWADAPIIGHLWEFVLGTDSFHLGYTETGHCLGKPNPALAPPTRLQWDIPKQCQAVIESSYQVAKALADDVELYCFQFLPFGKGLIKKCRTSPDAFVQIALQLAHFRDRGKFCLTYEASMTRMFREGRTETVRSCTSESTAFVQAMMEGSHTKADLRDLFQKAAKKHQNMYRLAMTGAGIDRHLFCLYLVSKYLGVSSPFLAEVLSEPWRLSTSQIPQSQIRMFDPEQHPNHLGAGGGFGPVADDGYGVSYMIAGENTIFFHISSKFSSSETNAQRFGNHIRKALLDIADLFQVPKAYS

[3] = target: T2, Carnitine O-palmitoyltransferase 2, mitochondrial (Homo sapiens, UniProt P23786); assay: Inhibition of human CPT2
T2 sequence (P23786 whole entry): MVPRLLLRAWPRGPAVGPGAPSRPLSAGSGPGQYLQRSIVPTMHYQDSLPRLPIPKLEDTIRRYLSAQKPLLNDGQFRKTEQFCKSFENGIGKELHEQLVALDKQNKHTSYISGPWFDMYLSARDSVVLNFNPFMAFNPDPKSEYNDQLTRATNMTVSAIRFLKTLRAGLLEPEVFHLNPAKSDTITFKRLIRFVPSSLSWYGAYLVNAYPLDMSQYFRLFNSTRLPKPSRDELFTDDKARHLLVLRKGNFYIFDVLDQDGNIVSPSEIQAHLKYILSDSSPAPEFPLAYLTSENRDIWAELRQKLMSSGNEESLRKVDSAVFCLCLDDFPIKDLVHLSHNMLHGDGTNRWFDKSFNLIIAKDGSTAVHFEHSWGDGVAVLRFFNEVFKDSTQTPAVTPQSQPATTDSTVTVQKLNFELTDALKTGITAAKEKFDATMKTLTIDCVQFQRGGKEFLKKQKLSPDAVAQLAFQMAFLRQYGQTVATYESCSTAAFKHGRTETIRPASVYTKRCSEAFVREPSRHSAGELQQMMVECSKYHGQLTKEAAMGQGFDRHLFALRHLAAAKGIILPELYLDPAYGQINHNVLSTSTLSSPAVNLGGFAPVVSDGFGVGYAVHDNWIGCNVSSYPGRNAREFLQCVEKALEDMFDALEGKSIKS

[4] = target: T3, Carnitine O-palmitoyltransferase 1, liver isoform (Homo sapiens, UniProt P50416); assay: Inhibition of human CPT1A
T3 sequence (P50416 whole entry): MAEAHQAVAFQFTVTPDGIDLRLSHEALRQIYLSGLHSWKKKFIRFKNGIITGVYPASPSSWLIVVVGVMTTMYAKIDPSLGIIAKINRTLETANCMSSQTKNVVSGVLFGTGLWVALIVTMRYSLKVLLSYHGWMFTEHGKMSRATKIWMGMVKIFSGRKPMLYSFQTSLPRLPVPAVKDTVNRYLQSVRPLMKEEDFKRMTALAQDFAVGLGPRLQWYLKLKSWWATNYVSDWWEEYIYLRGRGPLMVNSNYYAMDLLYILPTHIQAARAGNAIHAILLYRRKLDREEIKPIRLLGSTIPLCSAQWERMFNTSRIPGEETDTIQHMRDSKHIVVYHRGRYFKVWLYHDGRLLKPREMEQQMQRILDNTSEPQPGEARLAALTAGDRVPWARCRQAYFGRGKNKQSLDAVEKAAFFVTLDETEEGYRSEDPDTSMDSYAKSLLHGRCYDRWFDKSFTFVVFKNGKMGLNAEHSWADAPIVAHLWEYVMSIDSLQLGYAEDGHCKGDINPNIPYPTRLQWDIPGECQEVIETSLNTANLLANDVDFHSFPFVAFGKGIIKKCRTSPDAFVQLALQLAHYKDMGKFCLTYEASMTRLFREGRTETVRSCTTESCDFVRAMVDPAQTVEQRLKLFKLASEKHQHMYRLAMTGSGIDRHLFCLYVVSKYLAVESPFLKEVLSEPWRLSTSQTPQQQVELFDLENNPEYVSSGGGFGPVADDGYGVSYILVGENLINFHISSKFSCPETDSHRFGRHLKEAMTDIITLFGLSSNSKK

[5] = Inhibition of rat FAO
[6] = target: T4, Carnitine O-palmitoyltransferase 2, mitochondrial (Rattus norvegicus, UniProt P18886); assay: Inhibition of rat CPT2
T4 sequence (P18886 whole entry): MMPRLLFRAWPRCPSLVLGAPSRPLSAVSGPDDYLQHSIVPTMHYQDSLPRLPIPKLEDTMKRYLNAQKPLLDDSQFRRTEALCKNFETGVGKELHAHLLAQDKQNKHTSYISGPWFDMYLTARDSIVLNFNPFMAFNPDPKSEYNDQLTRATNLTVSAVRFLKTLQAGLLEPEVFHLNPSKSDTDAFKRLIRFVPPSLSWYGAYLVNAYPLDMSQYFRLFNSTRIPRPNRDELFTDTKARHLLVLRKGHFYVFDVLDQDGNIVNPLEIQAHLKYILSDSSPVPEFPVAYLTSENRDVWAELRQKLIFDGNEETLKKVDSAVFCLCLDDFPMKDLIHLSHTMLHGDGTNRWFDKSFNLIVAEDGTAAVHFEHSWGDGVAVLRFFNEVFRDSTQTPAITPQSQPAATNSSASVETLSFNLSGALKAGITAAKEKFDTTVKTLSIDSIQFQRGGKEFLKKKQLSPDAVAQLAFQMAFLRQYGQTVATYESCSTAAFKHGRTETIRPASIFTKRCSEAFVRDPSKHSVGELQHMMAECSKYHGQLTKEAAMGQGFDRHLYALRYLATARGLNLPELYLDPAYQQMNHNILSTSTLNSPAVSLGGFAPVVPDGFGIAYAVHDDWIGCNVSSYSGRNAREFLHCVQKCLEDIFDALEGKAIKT

[7] = target: T5, Mitochondrial carnitine/acylcarnitine carrier protein (Homo sapiens, UniProt O43772); assay: Inhibition of CACT
T5 sequence (O43772 whole entry): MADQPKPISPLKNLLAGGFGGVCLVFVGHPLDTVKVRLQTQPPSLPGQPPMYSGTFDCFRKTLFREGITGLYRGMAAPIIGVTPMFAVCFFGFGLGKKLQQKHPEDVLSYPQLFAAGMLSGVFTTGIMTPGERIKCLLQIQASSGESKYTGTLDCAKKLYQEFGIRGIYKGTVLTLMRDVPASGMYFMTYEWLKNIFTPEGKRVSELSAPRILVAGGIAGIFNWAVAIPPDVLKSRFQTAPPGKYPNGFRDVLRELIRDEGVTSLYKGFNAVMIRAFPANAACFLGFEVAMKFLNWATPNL

[8] = target: T1, Carnitine O-palmitoyltransferase 1, muscle isoform; assay: Inhibition of CPT1B
[9] = target: T3, Carnitine O-palmitoyltransferase 1, liver isoform; assay: Inhibition of CPT1A
[10] = Inhibition of carnitine palmitoyltransferase in rat liver mitochondria assessed as conversion of [14C]palmitic acid to [14C]palmitoylcarnitine by radiometric assay
Mus musculus = assay: Reduction in glucose level in db/db mouse at 30 mg/kgl/day, po for 12 days; assay type: functional; set-up: scale not given: the % may be the effect or the level left; details: dose 30 mg/kg
[11] = Critical micelle concentration of compound; assay type: physicochemical
[12] = Inhibition of carnitine palmitoyltransferase in rat heart mitochondria assessed as conversion of [14C]palmitic acid to [14C]palmitoylcarnitine by radiometric assay
[13] = target: T4, Carnitine O-palmitoyltransferase 2, mitochondrial; assay: Inhibition of rat CPT2 using [3H]carnitine by radiometric assay
[14] = target: T6, Carnitine O-palmitoyltransferase 1, liver isoform (Rattus norvegicus, UniProt P32198); assay: Inhibition of rat CPT1A using [3H]carnitine by radiometric assay
T6 sequence (P32198 whole entry): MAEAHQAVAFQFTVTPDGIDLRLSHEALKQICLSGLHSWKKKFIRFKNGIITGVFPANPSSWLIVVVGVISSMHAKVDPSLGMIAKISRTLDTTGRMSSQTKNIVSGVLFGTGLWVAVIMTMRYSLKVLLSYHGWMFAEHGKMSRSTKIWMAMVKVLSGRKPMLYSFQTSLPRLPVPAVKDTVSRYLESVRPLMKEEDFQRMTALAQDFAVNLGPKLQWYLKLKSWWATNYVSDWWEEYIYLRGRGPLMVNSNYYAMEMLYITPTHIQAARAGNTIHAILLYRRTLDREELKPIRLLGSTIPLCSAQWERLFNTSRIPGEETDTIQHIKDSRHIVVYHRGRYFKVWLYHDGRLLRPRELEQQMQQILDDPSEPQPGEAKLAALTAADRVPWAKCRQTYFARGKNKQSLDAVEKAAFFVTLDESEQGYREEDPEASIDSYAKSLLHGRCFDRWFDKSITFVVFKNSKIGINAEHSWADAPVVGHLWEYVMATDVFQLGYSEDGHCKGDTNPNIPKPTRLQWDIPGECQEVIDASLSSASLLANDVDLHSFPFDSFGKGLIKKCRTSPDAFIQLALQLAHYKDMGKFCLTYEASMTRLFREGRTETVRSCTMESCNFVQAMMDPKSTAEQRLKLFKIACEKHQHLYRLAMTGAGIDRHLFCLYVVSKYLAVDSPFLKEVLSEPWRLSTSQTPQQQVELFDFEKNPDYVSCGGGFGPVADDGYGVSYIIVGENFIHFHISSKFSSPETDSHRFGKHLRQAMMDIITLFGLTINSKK

SMILES | IC50 [2] [µM] | IC50 [3] [µM] | IC50 [4] [µM] | IC50 [6] [µM] | also measured
N[C@H](C(=O)O)c1ccc(O)cc1 [OXFENICINE] | > 100 | > 100 | > 100 |  | IC50 [1]: > 100 µM; IC50 [5]: > 100 µM
COc1ccc(Cl)cc1S(=O)(=O)N1CCc2ccc(C(=O)Nc3ccc(C(=O)O)cc3)cc21 | > 100 | 0.74 | 0.021 | 3.2 | 
O=C(O)c1ccc(NC(=O)c2cccc(NS(=O)(=O)c3ccc(Cl)c(Cl)c3)c2)cc1 | 6.4 |  |  | 28.5 | 
CCCCCCCCCC(=O)O[C@@H](CC(=O)[O-])C[N+](C)(C)C |  |  |  |  | IC50 [7]: 5 µM
CCCCCCCC(=O)O[C@@H](CC(=O)[O-])C[N+](C)(C)C |  |  |  |  | IC50 [7]: 35 µM
COc1ccc(Cl)cc1S(=O)(=O)N1CC(C(=O)O)Oc2ccc(C(=O)Nc3cccc(F)c3)cc21 (stereo not drawn) | 3.4 | > 100 |  | > 100 | 
COc1ccc(-c2noc([C@H]3CCCCN3C(=O)COc3ccccc3)n2)cc1 | > 100 |  | 0.065 | > 100 | 
COc1ccc(C)cc1S(=O)(=O)N1CCCc2ccc(C(=O)Nc3ccc(CC(=O)O)cc3)cc21 | 3.5 | 2.8 | 0.16 | 16.7 | 
O=C(O)C(=O)c1ccc(OCCOc2ccc3ccccc3c2)s1 | 0.16 | 4.7 | 2.4 | > 100 | IC50 [1]: 25.5 µM; IC50 [5]: > 100 µM
CCCCCCCC[C@H]1OC(=O)C(CSCCNC(=O)CCNC(=O)[C@H](O)C(C)(C)COP(=O)(O)OP(=O)(O)OC[C@H]2O[C@@H](n3cnc4c(N)ncnc43)[C@H](O)[C@@H]2OP(=O)(O)O)[C@@H]1C(=O)O (stereo partly drawn) |  |  |  |  | IC50 [8]: 0.36 µM; IC50 [9]: 0.24 µM
CCCCCCOc1cccc(OCCCCNC(=O)N[C@H](CC(=O)[O-])C[P+](C)(C)C)c1 |  |  |  |  | IC50 [10]: 0.12 µM; Activity (Mus musculus): 30%; CMC [11]: 0.55 mM; IC50 [12]: 57.3 µM
O=C(COc1ccccc1)N1CCCC[C@@H]1c1nc(-c2ccccn2)cs1 | > 100 | 4.8 | 0.02 | 30.7 | 
O=C(NCc1cccs1)c1nn(Cc2cccc(C(F)(F)F)c2)c2ccccc12 | > 100 |  | 0.026 | > 100 | 
CCCCCCCCCCCCCCCC1(O)C[N+](C)(C)CC(CC(=O)[O-])O1 (stereo in doubt; (-)-27) |  |  |  |  | IC50 [13]: 6.7 µM; IC50 [14]: 15.5 µM
O=C(O)C1(C(F)(F)CCCCCOc2ccc(Cl)cc2)CO1 (stereo not drawn) |  |  |  |  | IC50 [8]: > 50 µM; IC50 [9]: 0.25 µM
CCCCCCCCCCCNS(=O)(=O)N[C@H](CC(=O)[O-])C[N+](C)(C)C |  |  |  |  | IC50 [10]: 0.8 µM; IC50 [12]: 5.8 µM
CCCCCCCCCCCCCCCC(=O)O[C@@H](CC(=O)[O-])C[N+](C)(C)C |  |  |  |  | IC50 [7]: 35 µM
O=C(O)[C@@]1(CCCCCCOc2ccccc2)CO1 [DECHLOROETOMOXIR] |  |  |  |  | IC50 [1]: 1.8 µM; IC50 [5]: 4.4 µM
CCCCCCCC[C@H]1OC(=O)C(C)=C1C(=O)O |  |  |  |  | IC50 [1]: 77 µM; IC50 [5]: > 100 µM
